The results in this text go back to patent US10653688B2, “6-(6-membered heteroaryl and aryl)isoquinolin-3-yl carboxamides and preparation and use thereof” (Samumed, LLC, priority 2017, dated 2020).

Experiment [1] relates to Cyclin D1 phosphorylation at Threonine 286 (pCcnD1) over total Cyclin D1 in SH-SY5Y cells. Put plainly: phosphoCcnD1 to total CcnD1 ratio (PTT) cell-based assay, western blot. Particulars: Homo sapiens, 48 hours. On the procedure:
Representative compounds were screened using the cell-based assay procedure for the ratio of signal of Cyclin D1 phosphorylation at Threonine 286 (pCcnD1) over the signal of total Cyclin D1 (CcnD1) (abbreviated: phosphoCcnD1 to total CcnD1 ratio, or PTT) as described below.
SH-SY5Y cells (human neuroblastoma, Sigma, Saint-Louis, Mo.) were cultured in 1:1 DMEM/F-12 medium supplemented with 15% FBS, 1% non-essential amino acid, and 1% penicillin/streptomycin.
SH-SY5Y cells were seeded at 1.0×10^5 cells in 1 mL per well in a 24-well plate. After cell adherence was confirmed, DMSO-resuspended Samumed compounds were dispensed to eight wells as a serial dilution from 10 μM to 4.6 nM final concentration in medium, or at 1.1 μM to 4.6 nM with particularly potent compounds. Cells were exposed to Samumed compounds for 48 hours in a 37° C. incubator.
Wells of compound-treated cells were visually checked for cell death before being washed with 500 μL per well of 1×DPBS supplemented with phosphatase inhibitor diluted to 1×. Cells were then lysed with 90 μL 1×RIPA buffer supplemented with phosphatase and protease inhibitors (each diluted to a final 1×). After scraping, 60 μL of cell lysate from each sample was used to dilute 4×LDS (ThermoFisher, NP0007) and 20×XT reducing agent (Bio-Rad, 1610792), each diluted to 1× final. All samples were then denatured via boiling at 95° C. Denatured cell sample lysates were directly tested for pCcnD1 and total CcnD1 signal by Western blot techniques and analysis. Specifically, denatured lysates were directly transferred to NuPAGE™ 4-12% Bis-Tris Midi Protein Gels, 26-well gels (ThermoFisher, WG1403BOX). Gels were transferred to […] nitrocellulose membranes via iBlot™ Transfer Stack, nitrocellulose, regular size (ThermoFisher, IB301031). Membranes were blocked with 1×TBS, 5% milk (Bio-Rad, 1706404XTU) before being probed for overnight with either anti-pCcnD1 primary antibody (Cell Signaling Technology, 2978S) or anti-total CcnD1 primary antibody (Cell Signaling Technology, 3300S) diluted 1:500 in 1×TBS-0.05% Tween-20, 3% milk. After overnight incubation in primary antibodies, membranes were washed profusely with 1×TBS-0.05% Tween-20 and probed for 1 hour with secondary anti-rabbit/HRP conjugate (Cell Signaling Technology, 7074S) diluted 1:1000 in 1×TBS-0.05% Tween-20, 3% milk. After incubation in secondary antibody, membranes were washed with 1×TBS-0.05% Tween-20.
Probed and washed membranes were developed for pCcnD1 or total CcnD1 signal with SuperSignal™ West Femto Maximum Sensitivity Substrate (ThermoFisher, 34096) using the ChemoDoc-It^2 (UVP) and related GelDocIt imaging software. Blots were then stripped, blocked, stained with anti-β-actin/HRP conjugate antibody (Cell Signaling Technology, 5125S), developed, and imaged for housekeeping β-actin protein control as previously described. Densitometry was measured with ImageJ (NIH) and signal was used to plot, draw the curves fitting, and determine the EC50 values in GraphPad Prism for tested Samumed compounds.
Background: In western blotting, separated proteins are transferred to a membrane and probed.

The subject of experiment [2] is SW480 colon carcinoma cells. The experiment is described as follows: Cell viability assay (CellTiter-Glo). Format: cell-based, human. Particulars: Homo sapiens; for EC50: 96 h, four days, CellTiter-Glo; for inhibition at 10 µM: read-out: percent inhibition at 10 μM (given for EC50 >10 μM), 10 μM.
The test system of experiment [3] is secreted cytokines TNFα, IL-6 and KC-GRO in BV-2 cells (mouse microglial cells). Put plainly: Secreted cytokines in lipopolysaccharide-stimulated mouse glial cell line. It counts as cell-based. The settings on record: LPS 250 ng/mL 5 hours, table does not say which cytokine. The gist of the method: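 BV-2 cells seeded at 35,000/well were pretreated overnight with compound (10 μM to 4.6 nM final), then stimulated 5 h with 250 ng/mL E. coli O111:B4 LPS. Supernatant TNFα, IL-6 and KC-GRO were quantified by electrochemiluminescence against standard curves (pg/mL) to fit EC50. Cytotoxicity was checked by CellTiter-Glo ATP read-out.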

`COc1cncc(-c2ccc3cnc(NC(=O)CN4CCOCC4)cc3c2)c1` [Compound 147, N-(6-(5-Methoxypyridin-3-yl)isoquinolin-3-yl)-2-morpholinoacetamide]: the concentration for a half-maximal effect (EC50) (commonly the concentration at which the effect is half-maximal) in experiment [1] was 359 nM; in experiment [2], more than 10 µM; in experiment [3], 628 nM. Besides, in experiment [2], the inhibition (as a rule, the percentage by which the read-out fell short of the control) at 10 µM worked out at 5.3%.

As to `[2H]C1([2H])OC([2H])([2H])C([2H])([2H])N(CC(=O)Nc2cc3cc(-c4cccnc4)ccc3cn2)C1([2H])[2H]` [Compound 151, 2-(Morpholino-d8)-N-(6-(pyridin-3-yl)isoquinolin-3-yl)acetamide], the EC50 in experiment [1] is 16 nM; in experiment [2] it was more than 10 µM; in experiment [3] it was 198 nM. Further, in experiment [2], the inhibition at 10 µM was 24.6%.
